From ChEMBL document CHEMBL1125588, “Quinazoline antifolate thymidylate synthase inhibitors: bridge modifications and conformationally restricted analogues in the C2-methyl series” (J Med Chem, 1991)

Key:
L1210 [1] = assay: Tested for the concentration to inhibit 50% of L1210 cell growth in culture.; assay type: functional, cell-based; conditions: Mus musculus
L1210 [2] = assay: Tested for inhibition of L1210 cell growth in presence of dThd and expressed as % of control.; assay type: functional, Mus musculus; design: concentration or dose not given beside the values
Thymidylate synthase = Thymidylate synthase (Mus musculus, UniProt P07607); assay: In vitro inhibition against L1210 thymidylate synthase (TS)
Sequence of Thymidylate synthase (P07607 whole entry): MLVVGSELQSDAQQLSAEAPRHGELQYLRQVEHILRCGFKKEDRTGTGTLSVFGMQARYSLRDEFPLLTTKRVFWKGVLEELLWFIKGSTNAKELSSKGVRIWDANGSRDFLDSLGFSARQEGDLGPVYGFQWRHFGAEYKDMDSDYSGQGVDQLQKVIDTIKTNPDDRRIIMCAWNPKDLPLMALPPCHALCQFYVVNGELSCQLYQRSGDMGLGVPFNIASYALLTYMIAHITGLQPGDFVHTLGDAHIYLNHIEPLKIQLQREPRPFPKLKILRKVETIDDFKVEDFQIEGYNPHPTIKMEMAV

L1210 [3] = assay: Compound was tested for the concentration to inhibit 50% of L1210:1565 cell growth.; assay type: functional, cell-based; conditions: Mus musculus
[4] = Ratio of IC50 of L1210:1565 cells to that of IC50 of L1210 cells; assay type: functional

Row | Structure (SMILES) | IC50 (L1210 [1]) [nM] | IC50 (Thymidylate synthase) [nM] | IC50 (L1210 [3]) [nM] | Control (L1210 [2]) [%] | Ratio [4]
1 | Cc1nc(O)c2cc(CNc3ccc4c(c3)CN([C@@H](CCC(=O)O)C(=O)O)C4=O)ccc2n1 | 3000 | 8270 |  |  | 
2 | Cc1nc(O)c2cc(CN(C)c3ccc4c(c3)CN([C@@H](CCC(=O)O)C(=O)O)C4=O)ccc2n1 | 1300 | 720 |  | 90 | 
3 | Cc1nc2ccc(CN(C)c3ccc(C(=O)N[C@@H](CCC(=O)O)C(=O)O)cc3)cc2c(=O)[nH]1 |  |  | 4200 |  | 38
4 | CCN(Cc1ccc(C(=O)N[C@@H](CCC(=O)O)C(=O)O)s1)c1ccc2nc(C)nc(O)c2c1 | 660 | 8420 |  | 94 | 
5 | Cc1nc2ccc(CNc3ccc(C(=O)N[C@@H](CCC(=O)O)C(=O)O)s3)cc2c(=O)[nH]1 | 3000 | 24800 |  |  | 
6 | Cc1nc(O)c2cc(N(CCO)Cc3ccc(C(=O)N[C@@H](CCC(=O)O)C(=O)O)s3)ccc2n1 | 6200 | 13300 |  | 91 | 
7 | Cc1nc(O)c2cc(Cn3ccc4cc(C(=O)N[C@@H](CCC(=O)O)C(=O)O)ccc43)ccc2n1 | 36 | 3270 |  | 90 | 
8 | C=CCN(Cc1ccc(C(=O)N[C@@H](CCC(=O)O)C(=O)O)s1)c1ccc2nc(C)nc(O)c2c1 | 540 | 14100 |  | 95 | 
9 | Cc1nc(O)c2cc(N(C)Cc3ccc(C(=O)N[C@@H](CCC(=O)O)C(=O)O)s3)ccc2n1 | 300 | 3820 | 2100 |  | 7
10 | Cc1nc(O)c2cc(NCc3ccc(C(=O)N[C@@H](CCC(=O)O)C(=O)O)s3)ccc2n1 | 26 | 6980 |  | 88 | 
11 | C#CCN(Cc1ccc2nc(C)nc(O)c2c1)c1ccc2c(c1)CN([C@@H](CCC(=O)O)C(=O)O)C2=O | 170 | 150 |  | 96 | 
12 | Cc1nc(O)c2cc(N(CCF)Cc3ccc(C(=O)N[C@@H](CCC(=O)O)C(=O)O)s3)ccc2n1 | 380 | 9900 |  | 95 | 
13 | Cc1nc(=O)c2cc(CN(C)c3ccc(C(=O)N[C@@H](CCC(=O)O)C(=O)O)s3)ccc2[nH]1 [RALTITREXED] | 7 |  | 960 |  | 137

More lines, main results first:

Row | IC50 (L1210 [1]) [nM] | IC50 (Thymidylate synthase) [nM] | IC50 (L1210 [3]) [nM] | Structure (SMILES) | Control (L1210 [2]) [%] | Ratio [4]
14 | 40 | 21500 |  | Cc1nc(O)c2cc(COc3ccc(C(=O)N[C@@H](CCC(=O)O)C(=O)O)cc3)ccc2n1 | 75 | 
15 | 2400 |  |  | C#CCN(Cc1ccc(C(=O)N[C@@H](CCC(=O)O)C(=O)O)cc1)c1ccc2nc(C)nc(O)c2c1 | 89 | 
16 | 60 | 16700 |  | Cc1nc(O)c2cc(NCc3ccc(C(=O)N[C@@H](CCC(=O)O)C(=O)O)cn3)ccc2n1 |  | 
17 | 350 | 1070 |  | Cc1nc(O)c2cc(N(C)C(C)c3ccc(C(=O)N[C@@H](CCC(=O)O)C(=O)O)cc3)ccc2n1 (stereo not given in full) |  | 
18 | 70 | 8280 |  | Cc1nc(O)c2cc(NCc3ccc(C(=O)N[C@@H](CCC(=O)O)C(=O)O)cc3)ccc2n1 | 93 | 
19 | 53 | 6730 |  | Cc1nc(O)c2cc(NCc3ccc(C(=O)N[C@@H](CCC(=O)O)C(=O)O)cc3F)ccc2n1 | 94 | 
20 | > 20000 | 10300 |  | Cc1nc(O)c2cc(Sc3ccc(C(=O)N[C@@H](CCC(=O)O)C(=O)O)cc3)ccc2n1 |  | 
21 | 420 | 4660 |  | Cc1nc(O)c2cc(CSc3ccc(C(=O)N[C@@H](CCC(=O)O)C(=O)O)cc3)ccc2n1 | 99 | 
22 | 700 | 2620 | 7700 | Cc1nc(O)c2cc(N(C)Cc3ccc(C(=O)N[C@@H](CCC(=O)O)C(=O)O)cc3)ccc2n1 | 93 | 11
23 | 800 | 4300 |  | Cc1nc(O)c2cc(NC(C)c3ccc(C(=O)N[C@@H](CCC(=O)O)C(=O)O)cc3)ccc2n1 (stereo not given in full) | 93 | 
